Data as given in ChEMBL document CHEMBL5579901, “Discovery of Novel [1,2,4]Triazolo[1,5-a]pyrimidine Derivatives as Novel Potent S-Phase Kinase-Associated Protein 2 (SKP2) Inhibitors for the Treatment of Cancer” (J Med Chem, 2024).
Calls of active or inactive are those of the source. The calls are words filed in the database; no cut-off is given here.

Assays:
[1] = molecular target: Cyclin-dependent kinases regulatory subunit 1/S-phase kinase-associated protein 2 (Homo sapiens, UniProt Q13309); test: Inhibition of GST-tagged SKP2 (unknown origin) binding to His6-tagged CKS1 (unknown origin) preincubated with SKP2 for 10 mins followed by CKS1 addition for 20 mins and measured after by HTRF method; assay type: protein assay
MGC-803 [2] = test: Inhibition of colony formation in human MGC-803 cells at 3 uM incubated for 10 days by crystal violet staining based inverted microscopic analysis; assay type: functional, cell-based; conditions: time 10.0 day
MGC-803 [3] = test: Inhibition of DNA synthesis in human MGC-803 cells incubated for 24 hrs by EdU staining based fluorescence microscopic analysis; assay type: functional, cell-based; conditions: dose 2.5-7.5 µM
PC-3 [4] = test: Inhibition of DNA synthesis in human PC-3 cells incubated for 24 hrs by EdU staining based fluorescence microscopic analysis; assay type: functional, cell-based
PC-3 [5] = test: Induction of cell cycle arrest in human PC-3 cells assessed as cells at G2/M phase at 5 uM incubated for 36 hrs by PI staining based flow cytometry (reference value: 21.3%); assay type: functional
PC-3 [6] = test: Induction of cell cycle arrest in human PC-3 cells assessed as cells at G0/G1 phase at 7.5 uM incubated for 36 hrs by PI staining based flow cytometry (reference value: 54.5%); assay type: functional
PC-3 [7] = test: Induction of cell cycle arrest in human PC-3 cells assessed as cells at G2/M phase at 7.5 uM incubated for 36 hrs by PI staining based flow cytometry (reference value: 21.3%); assay type: functional
MGC-803 [8] = test: Induction of cell cycle arrest in human MGC-803 cells assessed as cells at G0/G1 phase at 7.5 uM incubated for 36 hrs by PI staining based flow cytometry (reference value: 57.1%); assay type: functional
PC-3 [9] = test: Induction of cell cycle arrest in human PC-3 cells assessed as cells at S phase at 15 uM incubated for 6 hrs by PI staining based flow cytometry (reference value: 22.9%); assay type: functional
PC-3 [10] = test: Induction of cell cycle arrest in human PC-3 cells assessed as cells at G2/M phase at 15 uM incubated for 12 hrs by PI staining based flow cytometry (reference value: 21.4%); assay type: functional
PC-3 [11] = test: Induction of cell cycle arrest in human PC-3 cells assessed as cells at G0/G1 phase at 15 uM incubated for 48 hrs by PI staining based flow cytometry (reference value: 55.1%); assay type: functional
PC-3 [12] = test: Induction of cell cycle arrest in human PC-3 cells assessed as cells at G2/M phase at 15 uM incubated for 48 hrs by PI staining based flow cytometry (reference value: 21.4%); assay type: functional
MGC-803 [13] = test: Induction of cell cycle arrest in human MGC-803 cells assessed as cells at S phase at 15 uM incubated for 6 hrs by PI staining based flow cytometry (reference value: 19.6%); assay type: functional
MGC-803 [14] = test: Induction of cell cycle arrest in human MGC-803 cells assessed as cells at G2/M phase at 15 uM incubated for 24 hrs by PI staining based flow cytometry (reference value: 20.8%); assay type: functional
PC-3 [15] = test: Upregulation of p27 protein expression in human PC-3 cells at 15 uM by Western blotting analysis; assay type: functional, cell-based; conditions: time 6-48 hrs, TDE = time-dependent effect
[16] = Toxicity against NOD-SCID mouse assessed as change in kidney morphology at 25 to 50 mg/kg, IG administered for 21 days by H and E staining based assay; assay type: organism-based; conditions: in vivo, po, 504 h, dose 25-50 mg/kg, time 21 day
[17] = AUCinfinity in Sprague-Dawley rat at 50 mg/kg, po measured upto 24 hrs by LC/MS-MS analysis; assay type: ADME, organism-based; conditions: in vivo
[18] = AUClast in Sprague-Dawley rat at 50 mg/kg, po measured upto 24 hrs by LC/MS-MS analysis; assay type: ADME, organism-based; conditions: in vivo

Chain of Cyclin-dependent kinases regulatory subunit 1/S-phase kinase-associated protein 2 (P61024 whole entry): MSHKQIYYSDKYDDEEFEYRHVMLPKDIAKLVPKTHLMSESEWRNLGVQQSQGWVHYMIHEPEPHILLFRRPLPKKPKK
Chain of Cyclin-dependent kinases regulatory subunit 1/S-phase kinase-associated protein 2 (Q13309 whole entry): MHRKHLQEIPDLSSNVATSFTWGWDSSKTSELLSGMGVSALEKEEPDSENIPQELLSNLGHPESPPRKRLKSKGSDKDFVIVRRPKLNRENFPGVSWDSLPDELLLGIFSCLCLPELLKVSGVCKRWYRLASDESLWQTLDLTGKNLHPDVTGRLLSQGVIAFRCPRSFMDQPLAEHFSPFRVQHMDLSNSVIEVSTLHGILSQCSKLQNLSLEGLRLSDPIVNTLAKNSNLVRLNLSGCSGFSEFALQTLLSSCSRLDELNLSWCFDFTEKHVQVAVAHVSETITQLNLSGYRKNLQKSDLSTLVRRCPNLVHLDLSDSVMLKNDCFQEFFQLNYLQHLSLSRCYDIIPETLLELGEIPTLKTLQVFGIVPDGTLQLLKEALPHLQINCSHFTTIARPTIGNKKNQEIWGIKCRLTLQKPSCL

IC50 [1]: 4.86 µM | AUC(0-inf) [17]: 1070 ng·h/mL | AUC(0-t) at 24 h [18]: 906 ng·h/mL
SMILES: COc1ccc(-c2cc(C)nc3nc(SCc4ccc(Br)cc4)nn23)c(OC)c1
inhibition (MGC-803 [2]): Active | inhibition (MGC-803 [3]): Dose-Dependent Effect | inhibition (PC-3 [4]): Dose-Dependent Effect | Activity (PC-3 [5]): 19.9% | Activity (PC-3 [6]): 39% | Activity (PC-3 [7]): 21.9% | Activity (MGC-803 [8]): 45.1% | Activity (PC-3 [9]): 26.7% | Activity (PC-3 [10]): 18.5% | Activity (PC-3 [11]): 36.9% | Activity (PC-3 [12]): 22.5% | Activity (MGC-803 [13]): 26.8% | Activity (MGC-803 [14]): 16.1% | Activity (PC-3 [15]): Tde | Activity [16]: Non-Toxic
